# Data as given in article PMC4503454, “A Lead-In with Silibinin Prior to Triple-Therapy Translates into Favorable Treatment Outcomes in Difficult-To-Treat HIV/Hepatitis C Coinfected Patients” (PLoS ONE, 2015).
# Key:
# [1] = Antiretroviral plasma trough levels before and during silibinin; assay type: in vivo, human
# Experimental: Plasma samples obtained from HIV-HCV infected individuals were isolated by immediate centrifugation at 1850 X g (3000 rpm) and stored at -80°C. For the plasma quantification of antiretroviral drugs, samples were inactivated for virus at 60°C for 60 minutes. Plasma levels were determined by liquid chromatography coupled with tandem mass spectrometry (LC-MS/MS) after protein precipitation with acetonitrile according to our previously reported validated analytical method. The laboratory participates in an international external quality assurance program for antiretroviral drugs analysis (KKGT, Stichting Kwaliteitsbewaking Klinische Geneesmiddelanalyse en Toxicologie, Association for Quality Assessment in TDM and clinical Toxicology, The Hague, The Netherlands). Plasma trough levels for raltegravir (RAL), darunavir (DRV), atazanavir (ATV), and etravirine (ETV) were graphically extrapolated from measured concentrations, using population pharmacokinetic models previously published. Reference values for efavirenz (EFV) were adopted from a study from Marzolini et al.. The median trough concentrations for these agents in HIV-infected persons receiving the recommended dose are taken from the guidelines for the use of antiretroviral agents in HIV-1 infected adults and adolescents.
# We used an intention-to-continue treatment approach to calculate virologic responses as percentage of patients with undetectable HCV-RNA, using all patients who started treatment as denominator. Plasma concentrations are presented as median (range). Two-tailed paired t-tests were conducted to detect difference in trough levels of antiretroviral drugs between pre- and post-administration of silibinin. GraphPad Prism 6 (GraphPad Software, La Jolla, CA) was used with an alpha of 0.05.
# [2] = set-up: species or system human; details: in vivo; for Median Cmax (Range): human, iv, 20 mg/kg/day
# Experimental: To measure silibinin plasma concentration, the plasma concentrations of silibinin isomers (A and B) and silibinin dihydrogen succinate isomers (A and B) were determined by LC/MS-MS. Of note, the range of plasma concentrations of the LC-MS/MS assay was selected according to the levels reported in the study from Sala et al. Briefly, 100 μl of plasma was added to 20 μl of internal standard naringenin (IS) and extracted by protein precipitation. After evaporation and reconstitution, 20 μL was injected into a Select- HSS T3 (2.1x75 mm, 3.5 μm) (Waters, Milford, MA, USA).
# Chromatographic separations were performed using a gradient program with 10 mM ammonium formate containing 0.1% formic acid and acetonitrile with 0.1% formic acid. Analytes were quantified by electrospray ionization-triple quadrupole mass spectrometry using the selected reaction monitoring detection in the negative mode. Importantly, the selected gradient program allows adequate separation to quantify isomers A and B individually. The method has a mean inter-day coefficient of variation (CV) % of <10% and an inter-day deviation from nominal values of <7%.
# Of note, the Cmin of isomer A of both silibinin dihydrogen succinate and silibinin were 2- and 7-fold higher than the corresponding values of isomer B [20].
# [3] = plasma, paired t-test, ATV/r p = 0.89, RAL p = 0.90, ETV, EFV, DRV/r p = 0.14
Compound,"trough level under silibinin coadministration (day 1 vs day 12) [1, 3]",further results
"O=C1Nc2ccc(Cl)cc2[C@@](C#CC2CC2)(C(F)(F)F)O1 [EFV, efavirenz]",–,trough level under silibinin coadministration (day 1 vs day 12) ([1]; in vivo): not influenced
"Cc1cc(C#N)cc(C)c1Oc1nc(Nc2ccc(C#N)cc2)nc(N)c1Br [ETV, etravirine]",not influenced,–
"Cc1nnc(C(=O)NC(C)(C)c2nc(C(=O)NCc3ccc(F)cc3)c(O)c(=O)n2C)o1 [RAL, raltegravir]",not influenced,–
COc1cc([C@H]2Oc3cc([C@H]4Oc5cc(O)cc(O)c5C(=O)[C@@H]4O)ccc3O[C@@H]2CO)ccc1O [Silibinin A],–,Median Cmax (Range) [2]: 0.62 (0.29–1.07) μg/mL; Cmin of isomer A relative to isomer B [2]: 7 fold
COc1cc(C2Oc3cc(C4Oc5cc(O)cc(O)c5C(=O)C4O)ccc3OC2CO)ccc1O (centres unmarked) [Silibinin B],–,Median Cmax (Range) [2]: 0.25 (0.08–0.78) μg/mL
atazanavir/ritonavir [ATV/r],not influenced,–
darunavir/ritonavir [DRV/r],not influenced,–
